Assay results as given in paper PMC8635125, “A Novel Dibenzoxazepine Attenuates Intracellular Salmonella Typhimurium Oxidative Stress Resistance” (Microbiology Spectrum, 2021).
In brackets after ≈: the same amount, converted by molar mass. Like-named read-outs stand apart in the source and are kept apart here.

Key:
[1] = system: intracellular S. Typhimurium in RAW264.7 macrophages; assay: microbe, parasite or virus in culture; assay type: cell-based, Salmonella enterica serovar Typhimurium; conditions: for survival of intracellular Salmonella in macrophages, antibiotic alone: RAW264.7, 24 h
Procedure: (§1) Overnight cultures of RFP-expressing S. Typhimurium were prepared for infection by 1:100 dilution in fresh LB broth and incubation for 2 h at 37°C. The bacteria were then collected by centrifugation at 6,000 × g for 3 min and suspended in phosphate-buffered saline (PBS; pH 7.2) to an optical density of 0.6 at 600 nm, which was equivalent to 5 × 10^8 CFU/mL. RAW264.7 macrophages were seeded in 96-well black clear-bottom plates (Greiner) and incubated for 20 h followed by infection with RFP-expressing S. Typhimurium at a multiplicity of infection (MOI) of 50 for 1 h. […] Afterward, the cells were washed and stained with CellTracker Green (Thermo Fisher Scientific) for 30 min in serum-free DMEM followed by fixation in 3.7% formaldehyde (Sigma-Aldrich) for 20 min and stained with 0.2 mg/L DAPI (4′,6-diamidino-2-phenylindole; AAT Bioquest) for 30 min. Images of individual wells were captured and analyzed using a high-content imaging system (ImageXpress Micro 4; Molecular Devices). The CC50 and 50% effective concentration (EC50) values against intracellular bacteria of each compound were determined using CalcuSyn software (Biosoft).

[2] = system: S. Typhimurium ATCC 14028; assay: MIC assay (broth microdilution); assay type: cell-based, Salmonella Typhimurium; conditions: for MIC: Salmonella enterica; for R/I/S: ATCC 14028, CLSI criteria
Procedure: (§2) The minimal inhibitory concentration (MIC) of each test compound against the individual bacterial strains was determined by the broth microdilution method following the guidelines recommended by the Clinical and Laboratory Standards Institute (CLSI) ([27]).

S. Typhimurium NL08.10 = assay: MIC assay (broth microdilution); assay type: cell-based, Salmonella Typhimurium; conditions: Table S1(A); for MIC: Salmonella enterica, TYPHIMURIUM, NL08.10, read-out: MIC; for R/I/S: NL08.10, CLSI criteria
Procedure: as §2

S. Typhimurium 0911R = assay: microbe, parasite or virus in culture; assay type: cell-based, Salmonella Typhimurium; conditions: for MIC: Salmonella enterica, TYPHIMURIUM; for R/I/S: Table S1(A), 0911R, CLSI criteria
Procedure: as §2

S. Typhimurium SA10 = assay: MIC assay (broth microdilution); assay type: cell-based, Salmonella Typhimurium; conditions: Table S1(B); for MIC: Salmonella enterica, TYPHIMURIUM, SA10; for R/I/S: SA10, CLSI criteria
Procedure: as §2

S. Typhimurium SB10 = assay: MIC assay (broth microdilution); assay type: cell-based, Salmonella Typhimurium; conditions: Table S1(B); for MIC: Salmonella enterica, TYPHIMURIUM, SB10, read-out: MIC; for R/I/S: SB10, CLSI criteria
Procedure: as §2

[3] = HCA cytotoxicity toward infected macrophages (nuclear staining); assay type: cell-based, murine; conditions: mouse, RAW264.7 macrophages infected with S. Typhimurium, infected RAW264.7 cells, read-out: 50% cytotoxic concentration (CC50) toward macrophages
Procedure: as §1

[4] = system: ROS levels in Salmonella-infected RAW264.7 cells; assay: Analysis of ROS in macrophages (H2DCFDA); assay type: cell-based, murine; conditions: 1 h; SW14 at concentrations up to 8 μM
Procedure: RAW264.7 macrophages were seeded in 96-well black plates and infected by S. Typhimurium ATCC 14028 at an MOI of 25 for 1 h. After infection, the cells were washed, exposed to 100 mg/L gentamicin for 1 h, washed with warm Krebs-Ringer phosphate buffer (KRP buffer; 120 mM NaCl, 5 mM KCl, 1.7 mM KH2PO4, 8.3 mM Na2HPO4, 10 mM glucose, 1 mM CaCl2, 1.5 mM MgCl2, pH 7.3) and stained with H2DCFDA at 37°C with 5% CO2 for 45 min. The cells were then washed with KRP buffer and treated with SW14 or PMA at the desired concentrations in KRP buffer with 10% FBS. Fluorescence signals at 488/525 nm (excitation/emission) were measured using a SpectraMax M5 Microplate Reader (Molecular Devices).

[5] = Table S1(A), ATCC 14028, read-out: MIC
[6] = Table S2, CAMH medium, read-out: MIC
[7] = Table S2, LB medium, read-out: MIC
[8] = Table S2, LPM medium, read-out: MIC

SMILES: Cn1cnc(N)c2ncnc1-2 [3-MA, 3-methyladenine]
- relative number of intracellular bacteria ([1]; 3-MA 10 mM, infected RAW264.7): increased significantly

SMILES: CC1(C)S[C@@H]2[C@H](NC(=O)[C@H](N)c3ccccc3)C(=O)N2[C@H]1C(=O)O [Ampicillin]
- MIC [2, 5]: 16 µg/mL (≈ 45.8 µM)
- MIC [2, 6]: 4 µg/mL (≈ 11.4 µM)
- MIC [2, 7]: 4 µg/mL (≈ 11.4 µM)
- MIC [2, 8]: 1 µg/mL (≈ 2.86 µM)
- R/I/S ([2]; Table S1(A)): I
- MIC (S. Typhimurium NL08.10): > 64 µg/mL
- R/I/S (S. Typhimurium NL08.10): R
- MIC (S. Typhimurium 0911R): > 64 µg/mL
- R/I/S (S. Typhimurium 0911R): R

SMILES: O=C(N[C@H](CO)[C@H](O)c1ccc([N+](=O)[O-])cc1)C(Cl)Cl [Chloramphenicol]
- MIC [2, 5]: 16 µg/mL (≈ 49.5 µM)
- R/I/S ([2]; Table S1(A)): I
- MIC (S. Typhimurium NL08.10): 32 µg/mL (≈ 99 µM)
- R/I/S (S. Typhimurium NL08.10): R
- R/I/S (S. Typhimurium 0911R): R

SMILES: O=C(O)c1cn(C2CC2)c2cc(N3CCNCC3)c(F)cc2c1=O [Ciprofloxacin, ciprofloxacin]
- survival of intracellular Salmonella in macrophages, antibiotic alone ([1]; HCA): inhibited the survival of intracellular Salmonella in macrophages in a dose-dependent manner

SMILES: CNC(C)C1CCC(N)C(OC2C(N)CC(N)C(OC3OCC(C)(O)C(NC)C3O)C2O)O1 (stereo not drawn) [Gentamicin, gentamicin]
- MIC [2, 5]: 2 µg/mL (≈ 4.19 µM)
- MIC ([2]; Table S1(B), ATCC 14028, read-out: MIC): 2 µg/mL (≈ 4.19 µM)
- R/I/S ([2]; Table S1(A)): S
- R/I/S ([2]; Table S1(B)): S
- MIC (S. Typhimurium NL08.10): 2 µg/mL (≈ 4.19 µM)
- R/I/S (S. Typhimurium NL08.10): S
- MIC (S. Typhimurium SA10): 0.5 µg/mL (≈ 1.05 µM)
- R/I/S (S. Typhimurium SA10): S
- MIC (S. Typhimurium SB10): 1 µg/mL (≈ 2.09 µM)
- R/I/S (S. Typhimurium SB10): S
- R/I/S (S. Typhimurium 0911R): S

SMILES: CN1CCN(C2=Nc3ccccc3Oc3ccc(Cl)cc32)CC1 [Loxapine, loxapine]
- selectivity index (SI; CC50/EC50) ([1]; CC50 RAW264.7 / EC50 intracellular Salmonella): 16.3
- EC50 ([1]; Salmonella enterica, RFP-expressing S. Typhimurium in RAW264.7, 24 h, with gentamicin 20 mg/L, HCA, read-out: 50% effective concentration (EC50) against intracellular Salmonella): 5.4 µM
- CC50 at 24 h [3]: 88.2 µM

SMILES: CC1COc2c(N3CCN(C)CC3)c(F)cc3c(=O)c(C(=O)O)cn1c23 (stereo not drawn) [Ofloxacin]
- MIC [2]: < 0.125 µg/mL
- R/I/S ([2]; Table S1(B)): S
- MIC (S. Typhimurium SA10): 8 µg/mL (≈ 22.1 µM)
- R/I/S (S. Typhimurium SA10): R
- MIC (S. Typhimurium SB10): 8 µg/mL (≈ 22.1 µM)
- R/I/S (S. Typhimurium SB10): R

SMILES: CCCCCCCCCCCCCC(=O)O[C@@H]1[C@@H](C)[C@@]2(O)[C@@H](C=C(CO)C[C@]3(O)C(=O)C(C)=C[C@@H]23)[C@@H]2C(C)(C)[C@]12OC(C)=O [PMA, phorbol 12-myristate 13-acetate]
- ROS level (H2DCFDA fluorescence signal) in infected macrophages [4]: significantly elevated

SMILES: CO[C@H]1/C=C/O[C@@]2(C)Oc3c(C)c(O)c4c(O)c(c(/C=N/N5CCN(C)CC5)c(O)c4c3C2=O)NC(=O)/C(C)=C\C=C\[C@H](C)[C@H](O)[C@@H](C)[C@@H](O)[C@@H](C)[C@H](OC(C)=O)[C@@H]1C [Rifampicin]
- MIC [2, 6]: 16 µg/mL (≈ 19.4 µM)
- MIC [2, 7]: 16 µg/mL (≈ 19.4 µM)
- MIC [2, 8]: 4 µg/mL (≈ 4.86 µM)

SMILES: [H]/N=C(/N)N[C@H]1[C@H](O)[C@@H](O)[C@H](O[C@@H]2O[C@@H](C)[C@](O)(C=O)[C@H]2O[C@@H]2O[C@@H](CO)[C@H](O)[C@@H](O)[C@@H]2NC)[C@@H](N/C(N)=N\[H])[C@@H]1O [Streptomycin]
- MIC [2, 5]: 32 µg/mL (≈ 55 µM)
- MIC (S. Typhimurium NL08.10): > 64 µg/mL
- MIC (S. Typhimurium 0911R): > 64 µg/mL

SMILES: CN(C)[C@@H]1C(O)=C(C(N)=O)C(=O)[C@@]2(O)C(O)=C3C(=O)c4c(O)cccc4[C@@](C)(O)[C@H]3C[C@@H]12 [Tetracycline]
- MIC [2, 5]: 8 µg/mL (≈ 18 µM)
- R/I/S ([2]; Table S1(A)): I
- R/I/S (S. Typhimurium NL08.10): R
- R/I/S (S. Typhimurium 0911R): R

SMILES: CN[C@H](CC(C)C)C(=O)N[C@H]1C(=O)N[C@@H](CC(N)=O)C(=O)N[C@H]2C(=O)N[C@H]3C(=O)N[C@H](C(=O)N[C@H](C(=O)O)c4cc(O)cc(O)c4-c4cc3ccc4O)[C@H](O)c3ccc(c(Cl)c3)Oc3cc2cc(c3O[C@@H]2O[C@H](CO)[C@@H](O)[C@H](O)[C@H]2O[C@H]2C[C@](C)(N)[C@H](O)[C@H](C)O2)Oc2ccc(cc2Cl)[C@H]1O [Vancomycin]
- MIC ([2]; Table S2, CAMH medium): 2050 µg/mL (≈ 1410 µM)
- MIC ([2]; Table S2, LB medium): 512 µg/mL (≈ 353 µM)
- MIC ([2]; Table S2, LPM medium): 128 µg/mL (≈ 88.3 µM)

SMILES: C=CC1=C(C(=O)O)N2C(=O)[C@@H](NC(=O)/C(=N\OCC(=O)O)c3csc(N)n3)[C@H]2SC1 [cefixime]
- survival of intracellular Salmonella in macrophages, antibiotic alone ([1]; HCA): inhibited the survival of intracellular Salmonella in macrophages in a dose-dependent manner
